Results from patent US11414404B2, “Compounds for the treatment of BRAF-associated diseases and disorders” (Array BioPharma Inc., priority 2019, dated 2022).
pIC50: −log10 of the molar value. Counter-ions that a name gives are not always drawn.

What was measured:
BCRP = BCRP (Homo sapiens (Human), UniProt Q9UNQ0); assay: BCRP MDCKII permeability assay: efflux ratio; conditions: dog
Description: BCRP transfected MDCKII cells were cultured and plated according to manufacturer's recommendations. Assay conditions included with and without the BCRP-specific inhibitor, K0143, at a concentration of 0.3 μM to ascertain the contribution of BCRP to the efflux value of the test compound.
(§1) Both positive and negative controls were used to assess functionality of P-gp or BCRP efflux in the assays. […] Final organic concentration in the assay was 1%. All dosing solutions contained 10 μM lucifer yellow to monitor LLC-PK1 or MDCKII cell monolayer integrity.
(§2) For the apical to basolateral determination (A to B), 75 μL of the test article in transport buffer were added to the apical side of the individual transwells and 250 μL of basolateral media, without compound or lucifer yellow, were added to each well. For the basolateral to apical determination (B to A), 250 μL of test article in transport buffer were added to each well and 75 μL transport buffer, without compound or lucifer yellow, were added to each transwell. All tests were performed in triplicate, and each compound was tested for both apical to basolateral and basolateral to apical transport. The plates were incubated for 2 hours on a Lab-Line Instruments Titer Orbital Shaker (VWR, West Chester, Pa.) at 50 rpm and 37° C. with 5% CO2. All culture plates were removed from the incubator and 50 μL of media were removed from the apical and basolateral portion of each well and added to 150 μL of 1 μM labetalol in 2:1 acetonitrile (acetonitrile): H2O, v/v.
(§3) These values were accepted when found to be below 2% for apical to basolateral and 5% basolateral to apical flux across the MDR1-transfected LLC-PK1 or BCRP-transfected MDCKII cell monolayers. The plates were sealed and the contents of each well analyzed by LC-MS/MS. The compound concentrations were determined from the ratio of the peak areas of the compound to the internal standard (labetalol) in comparison to the dosing solution.
(§4) The LC-MS/MS system was comprised of an HTS-PAL autosampler (Leap Technologies, Carrboro, N.C.), an HP1200 HPLC (Agilent, Palo Alto, Calif.), and a MDS Sciex 4000 Q Trap system (Applied Biosystems, Foster City, Calif.). […] The total run time, including re-equilibration, for a single injection was 1.2 minutes. Mass spectrometric detection of the analytes was accomplished using the ion spray positive mode.
(§5) An efflux ratio is calculated from the mean apical to basolateral (A−B) Papp data and basolateral to apical (B−A) Papp data: Efflux ratio=Papp(B−A)/Papp(A−B)

P-gp (MDR1) = P-gp (MDR1) (Homo sapiens (Human), UniProt P08183); assay: MDR1 LLC-PK1 permeability assay: efflux ratio; conditions: pig, LLC-PK1
Description: Both LLC-PK1 and MDR1 transfected LLC-PK1 cells were cultured and plated according to manufacturer's recommendations with the exception that the passage media contained only 2% fetal bovine serum to extend passage time out to seven days.
as §1, §2, §3, §4, §5

[1] = MDR1 LLC-PK1 and BCRP MDCKII permeability assay: permeability coefficient (Papp)
[2] = target: full-length FLAG-tagged B-Raf(V600E) (Homo sapiens (Human), UniProt P15056, V600E); assay: BRAF V600E enzyme assay (TR-FRET competitive displacement of fluorescent tracer); format: binding; conditions: averaged IC50; 60 min at ambient temperature; 11-point dosing, top dose 10 μM
Description: A competitive displacement assay was configured for B-Raf that monitors the amount of a fluorescently-tagged “tracer” bound to B-Raf via TR-FRET from an anti-tag Eu-labeled antibody also bound to B-Raf.
[formula] • where: • Xmax Average Uninhibited Controls • Xmin Average Background
A 4-parameter logistic model was the fit to the POC data for each compound.

full-length FLAG-tagged B-Raf(V600E), sequence (P15056 whole entry V600E): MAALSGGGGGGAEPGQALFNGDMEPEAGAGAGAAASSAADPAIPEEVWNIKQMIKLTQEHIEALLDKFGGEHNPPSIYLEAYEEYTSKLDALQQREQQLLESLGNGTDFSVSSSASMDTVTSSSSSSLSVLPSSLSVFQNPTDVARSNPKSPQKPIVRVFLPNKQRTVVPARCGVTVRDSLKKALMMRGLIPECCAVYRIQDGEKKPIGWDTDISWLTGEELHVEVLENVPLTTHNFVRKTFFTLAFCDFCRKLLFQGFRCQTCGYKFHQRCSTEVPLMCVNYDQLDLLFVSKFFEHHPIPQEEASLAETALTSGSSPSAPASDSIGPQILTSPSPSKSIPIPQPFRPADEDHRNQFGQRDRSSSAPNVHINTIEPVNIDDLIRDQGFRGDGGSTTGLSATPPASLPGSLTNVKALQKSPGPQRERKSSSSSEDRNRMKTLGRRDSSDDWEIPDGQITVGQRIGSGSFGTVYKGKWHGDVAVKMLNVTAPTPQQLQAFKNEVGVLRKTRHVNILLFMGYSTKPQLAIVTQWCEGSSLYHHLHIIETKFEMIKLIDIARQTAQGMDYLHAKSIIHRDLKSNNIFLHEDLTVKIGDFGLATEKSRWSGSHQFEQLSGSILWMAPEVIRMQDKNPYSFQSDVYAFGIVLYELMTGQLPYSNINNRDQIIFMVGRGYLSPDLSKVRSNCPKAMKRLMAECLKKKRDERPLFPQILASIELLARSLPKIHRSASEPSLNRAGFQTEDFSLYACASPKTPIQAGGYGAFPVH
BCRP, sequence (Q9UNQ0 whole entry, species assumed): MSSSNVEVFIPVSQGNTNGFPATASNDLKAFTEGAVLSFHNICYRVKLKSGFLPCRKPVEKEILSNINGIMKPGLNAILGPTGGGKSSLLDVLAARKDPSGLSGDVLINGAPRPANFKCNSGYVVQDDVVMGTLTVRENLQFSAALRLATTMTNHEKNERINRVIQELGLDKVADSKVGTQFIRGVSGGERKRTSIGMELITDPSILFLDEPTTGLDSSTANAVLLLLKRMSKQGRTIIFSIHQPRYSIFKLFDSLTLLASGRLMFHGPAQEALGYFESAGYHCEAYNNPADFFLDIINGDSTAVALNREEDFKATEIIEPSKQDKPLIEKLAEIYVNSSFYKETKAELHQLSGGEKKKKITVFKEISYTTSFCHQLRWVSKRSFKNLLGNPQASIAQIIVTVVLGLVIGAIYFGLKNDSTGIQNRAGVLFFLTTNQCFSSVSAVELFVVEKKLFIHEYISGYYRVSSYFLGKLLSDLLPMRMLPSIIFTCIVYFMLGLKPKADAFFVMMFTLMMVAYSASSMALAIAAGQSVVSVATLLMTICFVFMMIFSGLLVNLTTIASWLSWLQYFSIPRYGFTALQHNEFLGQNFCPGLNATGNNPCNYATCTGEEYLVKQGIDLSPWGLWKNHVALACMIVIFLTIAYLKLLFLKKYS
P-gp (MDR1), sequence (P08183 whole entry, species assumed): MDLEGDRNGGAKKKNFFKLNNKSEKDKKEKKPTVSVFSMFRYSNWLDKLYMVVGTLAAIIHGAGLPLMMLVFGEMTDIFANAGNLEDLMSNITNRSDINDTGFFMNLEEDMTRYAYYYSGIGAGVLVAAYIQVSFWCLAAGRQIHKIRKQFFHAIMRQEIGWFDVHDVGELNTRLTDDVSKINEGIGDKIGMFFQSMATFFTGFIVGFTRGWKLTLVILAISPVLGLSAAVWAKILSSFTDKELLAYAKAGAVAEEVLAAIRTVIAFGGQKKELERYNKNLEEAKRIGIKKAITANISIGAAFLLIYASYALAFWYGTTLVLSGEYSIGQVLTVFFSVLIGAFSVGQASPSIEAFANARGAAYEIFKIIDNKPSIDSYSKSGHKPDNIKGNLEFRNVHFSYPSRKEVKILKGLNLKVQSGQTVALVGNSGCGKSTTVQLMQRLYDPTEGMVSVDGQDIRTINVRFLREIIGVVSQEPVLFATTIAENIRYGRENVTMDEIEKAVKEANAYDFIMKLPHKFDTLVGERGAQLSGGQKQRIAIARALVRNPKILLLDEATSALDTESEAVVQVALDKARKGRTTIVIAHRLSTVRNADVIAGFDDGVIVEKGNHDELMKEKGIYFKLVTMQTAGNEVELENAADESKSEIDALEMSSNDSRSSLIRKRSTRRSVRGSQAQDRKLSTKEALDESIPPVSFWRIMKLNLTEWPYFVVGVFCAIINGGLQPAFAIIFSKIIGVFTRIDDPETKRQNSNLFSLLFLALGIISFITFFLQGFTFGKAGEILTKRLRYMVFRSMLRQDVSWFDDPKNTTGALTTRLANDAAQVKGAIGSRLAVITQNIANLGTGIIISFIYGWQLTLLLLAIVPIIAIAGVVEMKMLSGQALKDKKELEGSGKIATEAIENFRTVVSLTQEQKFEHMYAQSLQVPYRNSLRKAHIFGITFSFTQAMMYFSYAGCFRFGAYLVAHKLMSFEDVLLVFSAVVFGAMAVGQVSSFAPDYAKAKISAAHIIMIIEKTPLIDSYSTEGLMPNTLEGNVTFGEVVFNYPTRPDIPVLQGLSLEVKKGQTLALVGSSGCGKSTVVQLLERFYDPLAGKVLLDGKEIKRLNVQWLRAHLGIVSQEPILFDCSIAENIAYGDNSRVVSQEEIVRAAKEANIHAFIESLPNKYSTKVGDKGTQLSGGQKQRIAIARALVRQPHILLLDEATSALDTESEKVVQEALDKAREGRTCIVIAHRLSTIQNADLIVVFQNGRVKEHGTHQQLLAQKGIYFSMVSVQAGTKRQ

Structure (SMILES)	efflux ratio at 2 h, 1 µM (BCRP)	efflux ratio at 2 h, 1 µM (P-gp (MDR1))	Papp at 2 h, 1 µM [1]	pIC50 [2]
CCCS(=O)(=O)Nc1ccc(F)c(Nc2ccc3ncn(Cc4ccccc4)c(=O)c3c2C)c1Cl [Example 29, N-(3-((3-benzyl-5-methyl-4-oxo-3,4-dihydroquinazolin-6-yl)amino)-2-chloro-4-fluorophenyl)propane-1-sulfonamide]	0.87	1.61	12 ×10⁻⁶ cm/s	6.76
Cc1c(Nc2c(F)ccc(NS(=O)(=O)c3ccccc3)c2Cl)ccc2ncn(C)c(=O)c12 [Example 49, N-(2-chloro-3-((3,5-dimethyl-4-oxo-3,4-dihydroquinazolin-6-yl)amino)-4-fluorophenyl)benzenesulfonamide]	0.97	1.24	30.7 ×10⁻⁶ cm/s	8.40
CCCS(=O)(=O)Nc1ccc(F)c(Nc2ccc3ncn(C4CC4)c(=O)c3c2C)c1Cl [Example 31, N-(2-chloro-3-((3-cyclopropyl-5-methyl-4-oxo-3,4-dihydroquinazolin-6-yl)amino)-4-fluorophenyl)propane-1-sulfonamide trifluoroacetate]	1.64	1.59	24.5 ×10⁻⁶ cm/s	7.60
CCCS(=O)(=O)Nc1ccc(F)c(Nc2ccc3ncn(C(C)C)c(=O)c3c2C)c1Cl [Example 36, N-(2-chloro-4-fluoro-3-((3-isopropyl-5-methyl-4-oxo-3,4-dihydroquinazolin-6-yl)amino)phenyl)propane-1-sulfonamide trifluoroacetate]	1.22	1.17		7.58
Cc1c(Nc2c(F)ccc(NS(=O)(=O)CCCF)c2Cl)ccc2ncn(C)c(=O)c12 [Example 10, N-(2-chloro-3-((3,5-dimethyl-4-oxo-3,4-dihydroquinazolin-6-yl)amino)-4-fluorophenyl)-3-fluoropropane-1-sulfonamide]			41 ×10⁻⁶ cm/s	
CCCS(=O)(=O)Nc1nccc(Oc2ccc3ncn(C)c(=O)c3c2C)c1Cl [Example 57, N-(3-chloro-4-((3,5-dimethyl-4-oxo-3,4-dihydroquinazolin-6-yl)oxy)pyridin-2-yl)propane-1-sulfonamide]	2.08	0.91		7.02

Now from value to compound:

efflux ratio at 2 h, 1 µM (BCRP)	efflux ratio at 2 h, 1 µM (P-gp (MDR1))	Papp at 2 h, 1 µM [1]	pIC50 [2]	Structure (SMILES)
11.2	1.61	27.5 ×10⁻⁶ cm/s	8.84	Cc1c(Nc2c(F)c(F)cc(NS(=O)(=O)CCCF)c2Cl)ccc2ncn(C)c(=O)c12 [Example 8, N-(2-chloro-3-((3,5-dimethyl-4-oxo-3,4-dihydroquinazolin-6-yl)amino)-4,5-difluorophenyl)-3-fluoropropane-1-sulfonamide]
8.33	2.24	26.7 ×10⁻⁶ cm/s	8.20	CCCS(=O)(=O)Nc1cc(F)c(F)c(Nc2ccc3ncn(C)c(=O)c3c2C)c1F [Example 5, N-(3-((3,5-dimethyl-4-oxo-3,4-dihydroquinazolin-6-yl)amino)-2,4,5-trifluorophenyl)propane-1-sulfonamide]
0.92	1.13	28.4 ×10⁻⁶ cm/s	8.45	CCCS(=O)(=O)Nc1cc(F)cc(Oc2ccc3ncn(C)c(=O)c3c2C)c1Cl [Example 74, N-(2-chloro-3-((3,5-dimethyl-4-oxo-3,4-dihydroquinazolin-6-yl)oxy)-5-fluorophenyl)propane-1-sulfonamide]
3.14	2.81		7.89	Cc1c(Oc2c(F)ccc(NS(=O)(=O)CCCF)c2F)ccc2ncn(C)c(=O)c12 [Example 56, N-(3-((3,5-dimethyl-4-oxo-3,4-dihydroquinazolin-6-yl)oxy)-2,4-difluorophenyl)-3-fluoropropane-1-sulfonamide]
		39.5 ×10⁻⁶ cm/s		[2H]C([2H])([2H])n1cnc2ccc(Nc3c(F)ccc(NS(=O)(=O)CCCF)c3Cl)c(C)c2c1=O [Example 23, N-(2-chloro-4-fluoro-3-((5-methyl-3-(methyl-d3)-4-oxo-3,4-dihydroquinazolin-6-yl)amino)-phenyl)-3-fluoropropane-1-sulfonamide]
